Values belong to the molecule of their own block, whether it stands above or below them.
Experiments:
Assay in all cases: radiometric filter-binding kinase assay, Kinaseprofiler
CSNK1G1 (human) = CSNK1G1 (human) (UniProt Q9HCP0); conditions: compound 10.0 µM; ATP 15 µM
CHEK1 (human) = CHEK1 (human) (UniProt O14757); conditions: compound 10.0 µM; ATP 90 µM
FYN (human) = FYN (human) (UniProt P06241); conditions: compound 1.0 µM; ATP 70 µM
EPHA8 (human) = EPHA8 (human) (UniProt P29322); conditions: compound 1.0 µM; ATP 200 µM
PAK7 (human) = PAK7 (human) (UniProt Q9P286); conditions: compound 10.0 µM; ATP 15 µM
[1] = target: CSNK2A1 CSNK2B CSNK2A2 (human) (UniProt P19784+P68400+P67870); conditions: compound 10.0 µM; ATP 15 µM
MTOR FKBP1A (human) = MTOR FKBP1A (human) (UniProt P42345+P62942); conditions: compound 10.0 µM; ATP 45 µM
STK24 (human) = STK24 (human) (UniProt Q9Y6E0); conditions: compound 1.0 µM; ATP 15 µM
PTK2B (human) = PTK2B (human) (UniProt Q14289); conditions: compound 10.0 µM; ATP 90 µM
FLT3 (human) = FLT3 (human) (UniProt P36888); conditions: ATP 200 µM
PLK3 (human) = PLK3 (human) (UniProt Q9H4B4); conditions: compound 10.0 µM; ATP 70 µM
NTRK2 (human) = NTRK2 (human) (UniProt Q16620); conditions: ATP 90 µM
SRPK3 (human) = SRPK3 (human) (UniProt Q9UPE1); conditions: compound 10.0 µM; ATP 15 µM
STK17A (human) = STK17A (human) (UniProt Q9UEE5); conditions: compound 10.0 µM; ATP 10 µM
PRKACA (human) = PRKACA (human) (UniProt P17612); conditions: compound 1.0 µM; ATP 10 µM
EPHB1 (human) = EPHB1 (human) (UniProt P54762); conditions: compound 10.0 µM; ATP 200 µM
SRPK1 (human) = SRPK1 (human) (UniProt Q96SB4); conditions: compound 10.0 µM; ATP 10 µM
TLK2 (human) = TLK2 (human) (UniProt Q86UE8); conditions: ATP 10 µM
TXK (human) = TXK (human) (UniProt P42681); conditions: compound 1.0 µM; ATP 200 µM
INSR (human) = INSR (human) (UniProt P06213); conditions: compound 1.0 µM; ATP 200 µM
PRKG1 (human) = PRKG1 (human) (UniProt Q13976); conditions: compound 1.0 µM; ATP 90 µM
IRAK1 (human) = IRAK1 (human) (UniProt P51617); conditions: compound 10.0 µM; ATP 45 µM
MELK (human) = MELK (human) (UniProt Q14680); conditions: compound 1.0 µM; ATP 45 µM
HIPK3 (human) = HIPK3 (human) (UniProt Q9H422); conditions: ATP 15 µM
NUAK1 (human) = NUAK1 (human) (UniProt O60285); conditions: ATP 45 µM
ULK3 (human) = ULK3 (human) (UniProt Q6PHR2); conditions: compound 10.0 µM; ATP 10 µM
PASK (human) = PASK (human) (UniProt Q96RG2); conditions: compound 10.0 µM; ATP 15 µM
WNK2 (human) = WNK2 (human) (UniProt Q9Y3S1); conditions: compound 10.0 µM; ATP 200 µM
RPS6KA4 KD1 KD2 (human) = RPS6KA4 KD1 KD2 (human) (UniProt O75676); conditions: ATP 45 µM
FGR (human) = FGR (human) (UniProt P09769); conditions: compound 1.0 µM; ATP 45 µM
MAP2K1 (human) = MAP2K1 (human) (UniProt Q02750); conditions: compound 1.0 µM; ATP 10 µM
[2] = system: BRSK2 (human), Q8IWQ3 [S251I]; conditions: ATP 70 µM
[3] = system: IRAK4 (human), Q9NWZ3 [A81V]; conditions: ATP 200 µM
CSNK1D (rat) = conditions: compound 10.0 µM; accession and sequence are those of the human protein
MAPK3 (human) = MAPK3 (human) (UniProt P27361); conditions: compound 1.0 µM; ATP 70 µM
FER (human) = FER (human) (UniProt P16591); conditions: compound 10.0 µM; ATP 70 µM
MAPKAPK3 (human) = MAPKAPK3 (human) (UniProt Q16644); conditions: compound 10.0 µM; ATP 90 µM
STK4 (human) = STK4 (human) (UniProt Q13043); conditions: compound 1.0 µM; ATP 90 µM
NLK (human) = NLK (human) (UniProt Q9UBE8); conditions: compound 1.0 µM; ATP 200 µM
SRC (human) = SRC (human) (UniProt P12931); conditions: compound 10.0 µM; ATP 200 µM
[4] = system: AXL (human), P30530 [Q764R]; conditions: ATP 90 µM
EPHA3 (human) = EPHA3 (human) (UniProt P29320); conditions: compound 1.0 µM; ATP 120 µM
PIM1 (human) = PIM1 (human) (UniProt P11309); conditions: compound 10.0 µM; ATP 90 µM
[5] = target: JAK2 JH1 catalytic (human) (UniProt O60674); conditions: compound 1.0 µM; ATP 45 µM
TNK2 (human) = TNK2 (human) (UniProt Q07912); conditions: compound 1.0 µM; ATP 70 µM
PAK4 (human) = PAK4 (human) (UniProt O96013); conditions: compound 10.0 µM; ATP 10 µM
CAMK2G (human) = CAMK2G (human) (UniProt Q13555); conditions: compound 10.0 µM; ATP 10 µM
CDC42BPA (human) = CDC42BPA (human) (UniProt Q5VT25); conditions: compound 10.0 µM; ATP 45 µM
RPS6KA3 KD1 KD2 (human) = RPS6KA3 KD1 KD2 (human) (UniProt P51812); conditions: compound 1.0 µM; ATP 10 µM
NTRK1 (human) = NTRK1 (human) (UniProt P04629); conditions: compound 1.0 µM; ATP 120 µM
AURKB (human) = AURKB (human) (UniProt Q96GD4); conditions: compound 10.0 µM; ATP 10 µM
RPS6KA5 KD1 KD2 (human) = RPS6KA5 KD1 KD2 (human) (UniProt O75582); conditions: compound 1.0 µM; ATP 90 µM
KDR (human) = KDR (human) (UniProt P35968); conditions: compound 10.0 µM; ATP 90 µM
MARK2 (human) = MARK2 (human) (UniProt Q7KZI7); conditions: compound 1.0 µM; ATP 15 µM
TAOK1 (human) = TAOK1 (human) (UniProt Q7L7X3); conditions: compound 1.0 µM; ATP 10 µM
EPHA1 (human) = EPHA1 (human) (UniProt P21709); conditions: compound 1.0 µM; ATP 45 µM
[6] = system: RPS6KB1 (human), P23443 [T412E]; conditions: ATP 15 µM
[7] = system: SGK1 (human), O00141 [S422D]; conditions: ATP 90 µM

IRAK4 (human), Q9NWZ3 [A81V], sequence (Q9NWZ3 whole entry, looked up, stated change not applied): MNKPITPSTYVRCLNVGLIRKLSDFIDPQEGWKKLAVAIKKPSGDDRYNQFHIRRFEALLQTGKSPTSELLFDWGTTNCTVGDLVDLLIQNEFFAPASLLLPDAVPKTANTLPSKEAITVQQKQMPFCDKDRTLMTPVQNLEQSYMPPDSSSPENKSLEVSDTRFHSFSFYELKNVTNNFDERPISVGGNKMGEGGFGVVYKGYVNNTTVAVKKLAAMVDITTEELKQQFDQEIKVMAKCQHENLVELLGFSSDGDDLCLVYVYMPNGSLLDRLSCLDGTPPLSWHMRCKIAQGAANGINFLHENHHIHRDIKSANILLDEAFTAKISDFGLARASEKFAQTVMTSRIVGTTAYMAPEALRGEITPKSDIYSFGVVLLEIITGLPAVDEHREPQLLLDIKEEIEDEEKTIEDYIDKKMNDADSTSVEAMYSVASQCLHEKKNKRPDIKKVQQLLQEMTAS
AXL (human), P30530 [Q764R], sequence (P30530 whole entry Q764R, looked up): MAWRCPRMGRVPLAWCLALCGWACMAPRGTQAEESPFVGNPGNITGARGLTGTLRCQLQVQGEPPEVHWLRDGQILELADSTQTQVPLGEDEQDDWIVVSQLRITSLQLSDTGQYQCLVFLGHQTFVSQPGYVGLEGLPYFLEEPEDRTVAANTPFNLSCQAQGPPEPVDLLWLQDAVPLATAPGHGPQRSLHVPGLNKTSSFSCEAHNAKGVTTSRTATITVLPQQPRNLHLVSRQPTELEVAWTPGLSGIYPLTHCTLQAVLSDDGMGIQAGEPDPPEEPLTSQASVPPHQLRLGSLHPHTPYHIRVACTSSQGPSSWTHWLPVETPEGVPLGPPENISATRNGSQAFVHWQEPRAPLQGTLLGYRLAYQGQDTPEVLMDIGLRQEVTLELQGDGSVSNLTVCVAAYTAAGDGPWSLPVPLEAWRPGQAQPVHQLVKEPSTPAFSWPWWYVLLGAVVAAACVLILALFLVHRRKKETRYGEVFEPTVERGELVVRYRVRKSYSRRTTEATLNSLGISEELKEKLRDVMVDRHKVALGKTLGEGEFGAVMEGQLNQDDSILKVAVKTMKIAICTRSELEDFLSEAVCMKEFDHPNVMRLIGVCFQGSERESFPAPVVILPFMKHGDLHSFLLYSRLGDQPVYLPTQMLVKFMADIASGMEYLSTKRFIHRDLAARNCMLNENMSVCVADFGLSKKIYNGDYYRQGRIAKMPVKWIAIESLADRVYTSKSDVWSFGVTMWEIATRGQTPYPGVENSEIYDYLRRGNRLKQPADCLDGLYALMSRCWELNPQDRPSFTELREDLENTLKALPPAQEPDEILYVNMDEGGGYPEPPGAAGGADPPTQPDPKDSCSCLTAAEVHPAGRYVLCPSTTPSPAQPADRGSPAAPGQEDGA
BRSK2 (human), Q8IWQ3 [S251I], sequence (Q8IWQ3 whole entry, looked up, stated change not applied): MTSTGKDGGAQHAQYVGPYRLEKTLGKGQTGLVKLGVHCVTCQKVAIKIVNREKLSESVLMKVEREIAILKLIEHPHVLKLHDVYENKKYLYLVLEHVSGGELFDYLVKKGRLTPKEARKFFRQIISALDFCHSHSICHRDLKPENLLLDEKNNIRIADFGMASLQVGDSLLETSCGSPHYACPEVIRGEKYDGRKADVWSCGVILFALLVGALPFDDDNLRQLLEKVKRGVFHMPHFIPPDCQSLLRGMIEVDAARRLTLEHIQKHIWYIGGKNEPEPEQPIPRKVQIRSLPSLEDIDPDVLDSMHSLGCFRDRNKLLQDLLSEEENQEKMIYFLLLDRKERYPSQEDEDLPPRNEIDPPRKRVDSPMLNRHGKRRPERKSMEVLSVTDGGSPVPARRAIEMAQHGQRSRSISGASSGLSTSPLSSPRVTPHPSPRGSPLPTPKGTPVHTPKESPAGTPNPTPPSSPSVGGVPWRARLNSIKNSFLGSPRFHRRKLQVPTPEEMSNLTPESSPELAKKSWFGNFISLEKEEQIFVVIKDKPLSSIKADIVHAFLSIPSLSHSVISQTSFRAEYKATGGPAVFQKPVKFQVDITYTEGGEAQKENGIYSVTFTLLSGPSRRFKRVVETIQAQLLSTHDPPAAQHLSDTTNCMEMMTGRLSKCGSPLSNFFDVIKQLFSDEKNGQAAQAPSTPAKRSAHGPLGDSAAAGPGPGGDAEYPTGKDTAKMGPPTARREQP
TLK2 (human), sequence (Q86UE8 whole entry, looked up): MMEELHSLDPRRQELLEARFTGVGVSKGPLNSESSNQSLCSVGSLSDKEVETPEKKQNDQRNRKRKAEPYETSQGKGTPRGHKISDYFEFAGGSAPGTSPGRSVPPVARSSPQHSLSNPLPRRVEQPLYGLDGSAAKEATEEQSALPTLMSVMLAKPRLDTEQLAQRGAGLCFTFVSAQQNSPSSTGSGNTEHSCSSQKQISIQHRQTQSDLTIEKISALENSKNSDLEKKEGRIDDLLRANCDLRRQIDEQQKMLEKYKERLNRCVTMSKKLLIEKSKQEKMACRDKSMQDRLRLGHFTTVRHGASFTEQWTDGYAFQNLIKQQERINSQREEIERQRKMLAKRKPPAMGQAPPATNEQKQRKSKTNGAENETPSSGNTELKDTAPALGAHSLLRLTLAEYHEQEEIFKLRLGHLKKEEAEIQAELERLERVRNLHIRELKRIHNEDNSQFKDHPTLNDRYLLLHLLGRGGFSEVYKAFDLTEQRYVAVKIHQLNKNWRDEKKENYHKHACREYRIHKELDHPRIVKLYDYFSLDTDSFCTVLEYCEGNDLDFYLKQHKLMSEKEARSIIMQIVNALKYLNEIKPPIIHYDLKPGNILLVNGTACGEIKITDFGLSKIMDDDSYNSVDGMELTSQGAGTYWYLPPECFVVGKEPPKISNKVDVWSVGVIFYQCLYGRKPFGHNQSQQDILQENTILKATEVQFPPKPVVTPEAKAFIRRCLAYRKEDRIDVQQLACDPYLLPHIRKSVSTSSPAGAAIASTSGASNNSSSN
RPS6KA4 KD1 KD2 (human), sequence (O75676 whole entry, looked up): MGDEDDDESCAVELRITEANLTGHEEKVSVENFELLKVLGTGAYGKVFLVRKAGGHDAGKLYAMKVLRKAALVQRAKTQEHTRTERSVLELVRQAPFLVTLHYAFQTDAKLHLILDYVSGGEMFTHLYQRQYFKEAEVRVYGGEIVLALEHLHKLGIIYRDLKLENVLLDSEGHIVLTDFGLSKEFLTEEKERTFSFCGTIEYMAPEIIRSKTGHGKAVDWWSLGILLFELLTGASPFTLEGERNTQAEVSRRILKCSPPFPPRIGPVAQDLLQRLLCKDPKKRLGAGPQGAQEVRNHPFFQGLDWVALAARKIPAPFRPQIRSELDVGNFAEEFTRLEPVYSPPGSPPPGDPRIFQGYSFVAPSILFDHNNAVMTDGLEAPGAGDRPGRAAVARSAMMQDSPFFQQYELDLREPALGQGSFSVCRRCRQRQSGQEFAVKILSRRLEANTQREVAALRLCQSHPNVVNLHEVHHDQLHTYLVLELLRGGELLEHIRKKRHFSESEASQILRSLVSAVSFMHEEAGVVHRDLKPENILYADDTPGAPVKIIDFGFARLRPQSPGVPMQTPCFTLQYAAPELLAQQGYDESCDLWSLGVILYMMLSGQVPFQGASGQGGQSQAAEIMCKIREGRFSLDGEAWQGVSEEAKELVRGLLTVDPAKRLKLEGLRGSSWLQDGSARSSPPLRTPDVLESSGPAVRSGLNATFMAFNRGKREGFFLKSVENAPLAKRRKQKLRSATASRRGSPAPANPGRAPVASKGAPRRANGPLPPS
HIPK3 (human), sequence (Q9H422 whole entry, looked up): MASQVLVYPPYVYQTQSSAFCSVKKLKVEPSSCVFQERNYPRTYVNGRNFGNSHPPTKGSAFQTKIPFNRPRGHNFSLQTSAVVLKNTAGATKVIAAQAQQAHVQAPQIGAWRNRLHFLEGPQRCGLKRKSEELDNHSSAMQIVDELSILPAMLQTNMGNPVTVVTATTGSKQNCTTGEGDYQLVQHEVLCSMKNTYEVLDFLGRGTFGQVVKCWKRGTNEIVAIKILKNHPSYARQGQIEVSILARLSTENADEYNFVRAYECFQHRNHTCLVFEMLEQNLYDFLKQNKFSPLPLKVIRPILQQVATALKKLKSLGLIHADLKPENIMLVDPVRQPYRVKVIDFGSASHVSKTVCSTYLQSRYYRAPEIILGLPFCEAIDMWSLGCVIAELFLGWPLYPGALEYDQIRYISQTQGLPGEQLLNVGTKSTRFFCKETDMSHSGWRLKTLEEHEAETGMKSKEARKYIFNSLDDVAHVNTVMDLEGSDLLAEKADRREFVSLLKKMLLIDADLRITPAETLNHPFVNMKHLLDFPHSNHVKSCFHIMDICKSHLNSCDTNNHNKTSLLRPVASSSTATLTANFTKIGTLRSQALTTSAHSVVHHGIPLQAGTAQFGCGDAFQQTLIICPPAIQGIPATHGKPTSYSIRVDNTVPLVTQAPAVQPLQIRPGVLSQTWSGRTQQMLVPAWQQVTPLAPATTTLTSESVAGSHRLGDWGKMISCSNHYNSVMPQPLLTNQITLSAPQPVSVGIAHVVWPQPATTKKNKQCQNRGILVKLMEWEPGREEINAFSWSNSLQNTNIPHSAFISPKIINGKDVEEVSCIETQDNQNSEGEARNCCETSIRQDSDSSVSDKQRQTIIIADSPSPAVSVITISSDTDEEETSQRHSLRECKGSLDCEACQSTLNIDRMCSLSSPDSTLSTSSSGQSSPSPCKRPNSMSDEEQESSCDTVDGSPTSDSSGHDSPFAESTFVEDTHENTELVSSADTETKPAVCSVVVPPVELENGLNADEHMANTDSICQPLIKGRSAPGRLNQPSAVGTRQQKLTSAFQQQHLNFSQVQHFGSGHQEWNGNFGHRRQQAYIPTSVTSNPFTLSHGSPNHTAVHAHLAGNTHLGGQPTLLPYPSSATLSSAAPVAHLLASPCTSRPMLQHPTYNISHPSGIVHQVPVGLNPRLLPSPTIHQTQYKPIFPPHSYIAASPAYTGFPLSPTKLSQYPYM
MTOR FKBP1A (human), sequence (P62942 whole entry, looked up, other chains not shown): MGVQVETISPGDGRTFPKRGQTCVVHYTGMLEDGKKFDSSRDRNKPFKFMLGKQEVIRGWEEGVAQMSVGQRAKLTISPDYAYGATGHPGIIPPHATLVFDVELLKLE

Compound: CN[C@@H]1C[C@H]2O[C@@](C)([C@@H]1OC)n1c3ccccc3c3c4c(c5c6ccccc6n2c5c31)C(=O)NC4
residual activity (CSNK1G1 (human)): 54%
residual activity (CHEK1 (human)): 0%
residual activity (FYN (human)): 0%
residual activity (EPHA8 (human)): 26%
residual activity (PAK7 (human)): 0%
residual activity [1]: 95%
residual activity (MTOR FKBP1A (human)): 78%
residual activity (STK24 (human)): 0%
residual activity (PTK2B (human)): 0%
residual activity (FLT3 (human); compound 1.0 µM): 0%
residual activity (FLT3 (human); compound 10.0 µM): 0%
residual activity (PLK3 (human)): 43%
residual activity (NTRK2 (human); compound 1.0 µM): 0%
residual activity (NTRK2 (human); compound 10.0 µM): 0%
residual activity (SRPK3 (human)): 51%
residual activity (STK17A (human)): 0%
residual activity (PRKACA (human)): 0%
residual activity (EPHB1 (human)): 0%
residual activity (SRPK1 (human)): -4%
residual activity (TLK2 (human); compound 1.0 µM): 0%
residual activity (TLK2 (human); compound 10.0 µM): 0%
residual activity (TXK (human)): 24%
residual activity (INSR (human)): 26%
residual activity (PRKG1 (human)): 0%
residual activity (IRAK1 (human)): 0%
residual activity (MELK (human)): 0%
residual activity (HIPK3 (human); compound 1.0 µM): 82%
residual activity (HIPK3 (human); compound 10.0 µM): 34%
residual activity (NUAK1 (human); compound 1.0 µM): 0%
residual activity (NUAK1 (human); compound 10.0 µM): 0%
residual activity (ULK3 (human)): 0%
residual activity (PASK (human)): 0%
residual activity (WNK2 (human)): 37%
residual activity (RPS6KA4 KD1 KD2 (human); compound 1.0 µM): 0%
residual activity (RPS6KA4 KD1 KD2 (human); compound 10.0 µM): 0%
residual activity (FGR (human)): 0%
residual activity (MAP2K1 (human)): 0%
residual activity ([2]; compound 10.0 µM): 0%
residual activity ([3]; compound 10.0 µM): 0%
residual activity (CSNK1D (rat)): 52%
residual activity (MAPK3 (human)): 62%
residual activity (FER (human)): 0%
residual activity (MAPKAPK3 (human)): 43%
residual activity (STK4 (human)): 0%
residual activity (NLK (human)): 26%
residual activity (SRC (human)): 0%

Compound: COC(=O)[C@]1(O)C[C@@H]2O[C@@]1(C)n1c3ccccc3c3c4c(c5c6ccccc6n2c5c31)C(=O)NC4
residual activity ([2]; compound 10.0 µM): 0%
residual activity ([4]; compound 10.0 µM): -3%
residual activity ([3]; compound 1.0 µM): -2%
residual activity ([3]; compound 10.0 µM): 0%

residual activity (EPHA3 (human)): 100%
residual activity (PIM1 (human)): 28%
residual activity [5]: 17%
residual activity (TNK2 (human)): 24%
residual activity (PAK4 (human)): 28%
residual activity (CAMK2G (human)): 21%
residual activity (CDC42BPA (human)): 147%
residual activity (RPS6KA3 KD1 KD2 (human)): 17%
residual activity (NTRK1 (human)): 21%
residual activity (AURKB (human)): -1%
residual activity (RPS6KA5 KD1 KD2 (human)): 100%
residual activity (KDR (human)): 24%
residual activity (MARK2 (human)): 100%
residual activity (TAOK1 (human)): 100%
residual activity (EPHA1 (human)): 24%
Compound: O=C(Nc1cccc(Nc2nccc(Nc3cccc(C(F)(F)F)c3)n2)c1)C1CC1

residual activity ([6]; compound 1.0 µM): 55%
residual activity ([6]; compound 10.0 µM): 14%
residual activity ([2]; compound 1.0 µM): 64%
residual activity ([2]; compound 10.0 µM): 9%
residual activity ([4]; compound 1.0 µM): 50%
residual activity ([4]; compound 10.0 µM): 17%
residual activity ([7]; compound 1.0 µM): 60%
residual activity ([7]; compound 10.0 µM): 24%
residual activity ([3]; compound 1.0 µM): 36%
residual activity ([3]; compound 10.0 µM): 11%
Compound: O=C1c2ccccc2-c2n[nH]c3cccc1c23

Source: the kinase profiling compilation of Christmann-Franck et al. (2016)
